Experimental findings from patent US20140349923A1, “Compositions And Methods For Treating Diabetes And/Or Obesity” (GlaxoSmithKline Intellectual Property (No. 2) Limited, priority 2012, published 2014) are described below.

This test can be described thus: Chronic obesity efficacy study in DIO mice, chow ingredients with or without exendin-4 AlbudAb. Format: in vivo, DIO C57BL/6 mice. On the procedure: Male diet induced obese (DIO) C57BL/6 mice (40-50 g body weight) and lean C57BL/6 mice (Taconic, Hudson, N.Y.) were used for the chronic obesity efficacy studies. The DIO mice were group housed and fed a high fat diet (60% fat by kcal) by the vendor from the time of weaning. Upon receipt at the GlaxoSmithKline Research Triangle Park facility, all mice were single-housed and maintained at constant temperature (approximately 22° C.) with 12 hr light/dark cycle (lights on from 5:00 AM to 5:00 PM). The mice were given ad libitum access to food (Research Diets D12451, 45 kcal % fat for DIO; Lab Diet 5001, 13.5 kcal % fat for lean) and water. All animal protocols were approved by the institutional animal care and use committee at GlaxoSmithKline in Research Triangle Park, N.C. The BCE, OFS, pectin, oleic acid, Nutella containing chows were prepared by mixing in a Hobart mixer with a whisk attachment and stored at 4° C. until used. Chows were fed to mice in glass jars with wire mesh column inserts (Unifab Corp., Kalamazoo, Mich.). […] All combination then were evaluated with and without co-treatment with exendin-4-albudAb. […] Body weights (BW) were measured on day −7 and then every 3 to 4 days for the duration of the study. On day 24, body composition was measured using quantitative magnetic resonance (QMR). […]

Regarding `CCCCCCCC/C=C\CCCCCCCC(=O)O` [oleic acid], the “weight loss (% change in body weight)” value (26 days) was −4.3%. In addition, under “Student's t-test”, the “effect on weight compared to vehicle” value is given as “statistically significant weight loss”.
